Measured values from article PMC9705314, “Characterization of a new potent and long-lasting single chain peptide agonist of RXFP1 in cells and in vivo translational models” (Scientific Reports, 2022).
Where two headings read alike, the source gives them in different places. Values belong to the molecule of their own block, whether it stands above or below them. *1 amine or outer side, *2 acyl side, *3 side chain or, on linkers, in order; H or OH if unused. Where a SMILES comes first, the peptide text is derived from it. Side-chain parts run from the residue outwards. [ ]: non-standard residue; d: D form. The star is where a group is joined. γGlu = O=C(O)[C@H](CCC(=O)[*:2])N[*:1]; Stearoyl = CCCCCCCCCCCCCCCCCC(=O)*; Nle = CCCC[C@H](N)C(=O)O; AEEA = NCCOCCOCC(=O)O; Aib = CC(C)(N)C(=O)O

Assays:
[1] = Pharmacokinetics in Goettingen minipigs; format: in vivo, minipig; details: for CL / t1/2 / AUCext / F / AUC / C0 / Vd / Cmax / Tmax: female Göttingen minipig; for CL / t1/2 / AUC / C0 / Vd / Cmax / Tmax: LC-MS; for CL / t1/2 / AUC / C0 / Vd / Cmax: non-compartmental analysis; for AUC / C0 / Vd / Cmax / Tmax: 1 mg/kg; for Vd: read-out: Vss
Method: Goettingen minipigs (Ellegaard Göttingen Minipigs A/S, Soroe Landevej 302, DK-4261 Dalmose, Denmark) were dosed with the study peptide at a dose of 1 mg/kg IV and SC routes (0.1 mg/mL). Blood samples were collected from individual animals at the following time points: 0.083, 0.25, 0.5, 2, 4, 6, 8, 24, 48, 72, 96 and 168 h (IV route) and 0.25, 0.5, 2, 4, 6, 8, 24, 48, 72, 96 and 168 h (SC route). All samples, collected into K3-EDTA tubes, were centrifuged and plasma was harvested and stored at − 80 °C until analysis. Three hundred μL of 1% tri-fluoro acetic acid in acetonitrile containing 10 ng/mL irbesartan as internal standard were added to 30 μL of standard, QC and PK study samples to precipitate the plasma proteins. Each sample was vortexed and centrifuged, for 5 min, at 4000 rpm and at 4 °C. Two hundred and fifty microliters of supernatant were collected and evaporated under nitrogen at 37 °C in LoBIND 96 well plates. 150 µL of water/acetonitrile (90/10, v/v) were added to dissolve the evaporates and 10 µL of the extracted plasma samples were injected onto the column. Chromatographic separation was performed on a Thermo Vanquish (Thermo Scientific) chromatography system using a UPLC HSS T3, (50 mm × 2.1 mm I.D., 1.8 μm, Waters Corporation) with a flow rate of 0.600 mL/min at 40 °C and a two-solvent linear gradient system. Solvents A (water) and B (acetonitrile) contained both 0.1% formic acid. […] The Vanquish was coupled to an Orbitrap QExactive™ mass spectrometer (Thermo Scientific) in positive mode. Quantitation was performed in full scan. The optimized source parameters were as follows: ion spray voltage 3.8 kV, sheath gas flow 70 a.u., aux gas flow 10 a.u., aux T 300 °C, capillary T 250 °C, S-lens RF level 60%. Full MS parameters were as follows: mass range 150–2000, AGC target 1 × 10^6, max injection time 250 ms, resolution 70,000 (FWHM @ 200 m/z). Data processing was performed using Xcalibur 3.0 (Thermo Scientific). Ion current of the [M + 5H]5 + of the SA10SC-RLX was extracted with 5 ppm window for quantitation (814.47219 m/z). A calibration curve with 9 standard points was prepared freshly on the day of analysis by spiking appropriate amounts of an intermediate working standard solution into blank rat plasma and ranged from 10 to 4000 ng/mL (2.46–983 nM). Three QC samples, each at four concentration levels from […] to 3200 ng/mL (7.86–786 nM), were used for all analyses. Calibration curves were prepared by plotting the analyte to internal standard peak area ratio versus concentration. Calibration standards were fit by linear regression with 1/x^2 weighting. QC samples (n = 3) were used at six concentration levels. Accepted calibration curve contained minimum 7 concentration levels within ± 20% of nominal (± 25% at the Lower Limit of Quantitation). Accepted QCs were within ± 20% of nominal. PK parameters were calculated using a non-compartmental analysis with Phoenix WinNonLin version 6.4 software.

hRXFP1 (S69P/F76V) = target: T1, hRXFP1 (S69P/F76V) (Homo sapiens, UniProt Q9HBX9, F76V/S69P); assay: cAMP production in HEK cells expressing hRXFP1 (S69P/F76V); format: cell-based; details: hRXFP1 F76V-S69P dual mutant, n = 4 experiments in duplicate
T1 sequence (Q9HBX9 1-757 S69P/F76V): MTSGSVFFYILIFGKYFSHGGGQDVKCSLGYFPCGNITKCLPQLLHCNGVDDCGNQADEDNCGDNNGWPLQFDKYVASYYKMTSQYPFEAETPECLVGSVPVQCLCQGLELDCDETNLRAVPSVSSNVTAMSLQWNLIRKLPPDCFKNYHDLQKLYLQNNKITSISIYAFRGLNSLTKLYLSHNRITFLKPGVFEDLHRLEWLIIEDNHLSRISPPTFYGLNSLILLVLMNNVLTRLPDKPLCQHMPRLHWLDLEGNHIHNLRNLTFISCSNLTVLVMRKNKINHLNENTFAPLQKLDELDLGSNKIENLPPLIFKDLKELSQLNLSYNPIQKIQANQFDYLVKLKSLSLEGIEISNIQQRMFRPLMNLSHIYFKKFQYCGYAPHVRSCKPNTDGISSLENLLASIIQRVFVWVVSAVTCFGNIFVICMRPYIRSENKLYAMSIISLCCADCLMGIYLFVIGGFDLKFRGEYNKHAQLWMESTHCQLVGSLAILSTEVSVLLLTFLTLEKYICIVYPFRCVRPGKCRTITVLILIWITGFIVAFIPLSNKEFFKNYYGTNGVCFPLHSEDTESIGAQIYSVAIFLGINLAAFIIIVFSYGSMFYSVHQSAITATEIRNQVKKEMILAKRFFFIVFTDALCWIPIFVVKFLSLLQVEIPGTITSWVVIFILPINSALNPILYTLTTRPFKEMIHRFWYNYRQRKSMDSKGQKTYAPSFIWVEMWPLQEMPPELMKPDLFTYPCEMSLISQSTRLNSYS
Method: HEK cells were stably transduced with lentiviral constructs (Vectalys, MOI 20, batches rV2.1A1.5057 B, rV2.1A1.5056 B and rV2.1A1.5059 B) containing a bicistronic vectors encoding hRXFP1 (S69P) or hRXFP1 (F76V) or hRXFP1 (S69P/F76V) under the EF1 promoter followed by an internal ribosome entry site (IRES) elements to express the neomycin antibiotic resistance gene for selection with 500 μg/mL Geneticin (Invitrogen, #10131-019). Three days post transduction, HEK cells were grown in the presence of Genetecin. Positive individual clones were selected and amplified, and cAMP readout (nM) was used as described for other cell types at a cell density of 8000 cells/well.

[2] = female, Göttingen, minipig, plasma, iv, IV 1 mg/kg, animal 1
[3] = female, Göttingen, minipig, plasma, iv, IV 1 mg/kg, animal 2
[4] = female, Göttingen, minipig, plasma, sc, SC 1 mg/kg, animal 3
[5] = female, Göttingen, minipig, plasma, sc, SC 1 mg/kg, animal 4

CL ([1]; IV 1 mg/kg, plasma, animal 1): 0.130 mL/min/kg
t1/2 ([1]; IV 1 mg/kg, plasma, animal 1): 7.06 h
CL ([1]; IV 1 mg/kg, plasma, animal 2): 0.151 mL/min/kg
t1/2 ([1]; IV 1 mg/kg, plasma, animal 2): 6.92 h
AUCext ([1]; IV 1 mg/kg, plasma, animal 1): 0.462%
AUCext ([1]; IV 1 mg/kg, plasma, animal 2): 0.479%
F ([1]; SC 1 mg/kg vs IV 1 mg/kg, animal 3): 81%
F ([1]; SC 1 mg/kg vs IV 1 mg/kg, animal 4): 56%
AUCext ([1]; SC 1 mg/kg, plasma, animal 3): 3.16%
AUCext ([1]; SC 1 mg/kg, plasma, animal 4): 1.83%
AUC [1, 2]: 31.9 µM·h
C0 [1, 2]: 9360 nM
AUC [1, 3]: 27.1 µM·h
C0 [1, 3]: 8570 nM
Vd ([1]; female, Göttingen, minipig, plasma, iv, IV 1 mg/kg, plasma, animal 1): 0.0439 L/kg
Vd ([1]; female, Göttingen, minipig, plasma, iv, IV 1 mg/kg, plasma, animal 2): 0.0497 L/kg
AUC [1, 4]: 23.8 µM·h
Cmax [1, 4]: 1420 nM
AUC [1, 5]: 16.6 µM·h
Cmax [1, 5]: 1450 nM
Tmax [1, 4]: 6 h
Tmax [1, 5]: 4 h
clearance ([1]; female, Göttingen, minipig, plasma, minipigs, IV 1 mg/kg, n = 2): 0.14 mL/min/kg
bioavailability ([1]; female, Göttingen, minipig, plasma, minipigs, SC 1 mg/kg vs IV 1 mg/kg, read-out: bioavailability (ratio of scAUC/ivAUC)): ~70%
level at time molar at 12 h ([1]; female, Göttingen, minipig, plasma, minipigs, SC 1 mg/kg, read-out: plasma concentration after 12 h): ~1000 nM
apparent terminal half-life ([1]; minipigs, IV 1 mg/kg, n = 2): 7 h
Molecule: CCCCCCCCCCCCCCCCCC(=O)N[C@@H](CCC(=O)N[C@@H](CCC(=O)N[C@@H](CCC(=O)NCCOCCOCC(=O)NCCOCCOCC(=O)NCCOCCOCC(=O)NCCCC[C@H](NC(=O)[C@H](CCCCNC(C)=O)NC(=O)[C@H](CCCCN)NC(=O)[C@H](CCCNC(=N)N)NC(=O)C(C)(C)NC(=O)[C@H](CO)NC(=O)[C@H](Cc1c[nH]c2ccccc12)NC(=O)[C@@H](NC(=O)[C@H](CO)NC(=O)[C@H](CCCC)NC(=O)CNC(=O)[C@H](CCC(=O)O)NC(=O)C(C)(C)NC(=O)C(C)(C)NC(=O)[C@@H](NC(=O)[C@H](CCCCNC(C)=O)NC(=O)[C@H](C)NC(=O)[C@H](CCCNC(=N)N)NC(=O)[C@@H](NC(=O)[C@H](CCCCN)NC(=O)[C@H](CCC(=O)O)NC(=O)[C@H](CCCNC(=N)N)NC(=O)CNC(=O)[C@H](CCC(=O)O)NC(=O)[C@H](CC(C)C)NC(C)=O)C(C)C)[C@@H](C)CC)[C@@H](C)O)C(N)=O)C(=O)O)C(=O)O)C(=O)O [SA10SC-RLX] (Ac-LEGREKVRAK(Ac)I[Aib][Aib]EG[Nle]STWS[Aib]RKK(Ac)K([AEEA-AEEA-AEEA-γGlu-γGlu-γGlu-Stearoyl])-NH2)

Molecule: relaxin
cAMP response (efficacy) (hRXFP1 (S69P/F76V)): reduced in all RXFP1 mutants compared to the wild type construct
